pIC50, pKd: −log10 of the molar value. Where a SMILES comes first, the peptide text is derived from it. Bridges are numbered along the chain shown (N, C = ends). [ ]: non-standard residue; d: D form. The star is where a group is joined. hPhe(3-Cl-4-CF3) = N[C@@H](CCc1ccc(C(F)(F)F)c(Cl)c1)C(=O)O; NEtPhe(4-CF3) = CCN[C@@H](Cc1ccc(C(F)(F)F)cc1)C(=O)O; NMeGly(cPent) = CN[C@H](C(=O)O)C1CCCC1; NMeD = CN[C@@H](CC(=O)O)C(=O)O; NMeL = CN[C@@H](CC(C)C)C(=O)O; Morpholide = C1CN(*)CCO1; Ac3c = NC1(C(=O)O)CC1; Sar = CNCC(=O)O
Experiments:
[1] = target: GDP-bound KRAS wild-type protein (Homo sapiens, UniProt P01116); assay: Binding to KRAS by surface plasmon resonance (SPR), dissociation constant KD
Sequence of GDP-bound KRAS wild-type protein (P01116 1-188 isoform P01116-2): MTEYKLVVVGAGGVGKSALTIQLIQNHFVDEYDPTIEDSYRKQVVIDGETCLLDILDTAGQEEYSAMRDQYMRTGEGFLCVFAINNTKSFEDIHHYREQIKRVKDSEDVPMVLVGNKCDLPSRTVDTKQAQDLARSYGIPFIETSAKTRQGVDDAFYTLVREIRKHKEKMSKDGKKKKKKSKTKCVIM
Method in brief: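 Biotinylated GDP-bound RAS was captured at about 100–300 RU. Running buffer: HBS pH 7.4, 10 mM MgCl2, 10 µM GDP, 1 mM DTT, 0.01% Tween 20, 4% DMSO.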

[2] = system: human lung cancer strain NCI-H441; type: cell-based
Method in brief: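 Readout: […] after the ATP-based reagent. Compound: serial dilutions in dimethyl sulfoxide.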

HRAS wild-type protein = HRAS wild-type protein (Homo sapiens, UniProt P01112); assay: Binding to HRAS by surface plasmon resonance (SPR), KD and KD ratio to KRAS
Sequence of HRAS wild-type protein (P01112 whole entry): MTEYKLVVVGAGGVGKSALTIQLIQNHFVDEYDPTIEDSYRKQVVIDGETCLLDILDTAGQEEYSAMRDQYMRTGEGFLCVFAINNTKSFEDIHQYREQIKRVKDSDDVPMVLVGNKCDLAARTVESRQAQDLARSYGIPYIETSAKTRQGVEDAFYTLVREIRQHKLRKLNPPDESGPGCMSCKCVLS
Method in brief: (§1)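 Affinity is measured by surface plasmon resonance at 30°C against captured, GDP-loaded RAS carrying a biotinylated Avi tag. Compounds are titrated by single-cycle kinetics, and KD comes from a 1:1 fit.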

[3] = target: GDP-bound NRAS wild-type protein (Homo sapiens, UniProt P01111); assay: Binding to NRAS by surface plasmon resonance (SPR), KD and KD ratio to KRAS
Sequence of GDP-bound NRAS wild-type protein (P01111 whole entry): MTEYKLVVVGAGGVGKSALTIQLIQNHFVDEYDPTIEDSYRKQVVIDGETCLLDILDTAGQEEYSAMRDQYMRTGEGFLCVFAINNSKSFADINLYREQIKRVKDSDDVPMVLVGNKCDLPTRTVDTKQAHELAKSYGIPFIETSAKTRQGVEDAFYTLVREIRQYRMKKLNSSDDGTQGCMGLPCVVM
Method in brief: as §1

[4] = Single Cycle Kinetics, 1:1 binding model
[5] = ratio of the KD value with respect to HRAS wild-type protein to the KD value with respect to KRAS
[6] = ratio of the KD value with respect to GDP-bound NRAS wild-type protein to the KD value with respect to KRAS
[7] = ratio of KD for HRAS wild-type protein to KD for KRAS
[8] = ratio of KD for GDP-bound NRAS wild-type protein to KD for KRAS

Row | SMILES | pKd [1, 4] | pIC50 [2] | HRAS /KRAS (HRAS wild-type protein; ratio of KD value for HRAS wild-type protein to KD value for KRAS (SPR)) | NRAS /KRAS ([3]; ratio of KD value for GDP-bound NRAS wild-type protein to KD value for KRAS (SPR)) | HRAS /KRAS (HRAS wild-type protein; [5]) | NRAS /KRAS [3, 6] | pKd ([1]; Single Cycle Kinetics) | HRAS /KRAS (HRAS wild-type protein; [7]) | NRAS /KRAS [3, 8] | pKd ([1]; 1:1 binding model)
1 | CC[C@H](C)[C@@H]1NC(=O)[C@H](CC)N(C)C(=O)C[C@@H](C(=O)N(C)C)N(C)C(=O)[C@H](C2CCCC2)N(C)C(=O)C2(CCCC2)N(C)C(=O)[C@@H]2C[C@@H](C)CN2C(=O)[C@H](CCc2cc(F)c(C(F)(F)F)c(F)c2)NC(=O)CN(C)C(=O)[C@H](Cc2ccc(C)cc2)N2CC/C=C\C[C@@H](C2=O)N(C)C(=O)CN(C)C1=O [PP1812] | 9.23 | 8.11 | A (a compound having 10 or more and less than 20 is denoted as A) | A (a compound having 10 or more and less than 20 is denoted as A) | – | – | – | – | – | –
2 | CCCOC[C@H]1C(=O)N[C@@H]([C@@H](C)CC)C(=O)N(C)CC(=O)N(C)[C@H]2C/C=C\CCN(C2=O)[C@@H](Cc2ccc(C)cc2)C(=O)N(C)CC(=O)N[C@@H](CCc2cc(F)c(C(F)(F)F)c(F)c2)C(=O)N2C[C@H](CC)C[C@H]2C(=O)NC2(CCCC2)C(=O)N(C)[C@@H](C2CCCC2)C(=O)N(C)[C@H](C(=O)N(C)C)CC(=O)N1C [PP2218] | 9.54 | 7.62 | – | – | A (a compound having 10 or more and less than 20 is denoted as A) | A (a compound having 10 or more and less than 20 is denoted as A) | – | – | – | –
3 | CCO[C@@H]1C[C@H]2C(=O)NC3(CCC3)C(=O)N(C)[C@@H](C3CCCC3)C(=O)N(C)[C@H](C(=O)N3CCOCC3)CC(=O)N(C)[C@@H](CC(C)C)C(=O)N[C@@H]([C@@H](C)CC)C(=O)N(C)CC(=O)N(C)[C@H]3CCCCCN(C3=O)[C@@H](Cc3ccc(F)c(F)c3)C(=O)N(C)CC(=O)N[C@@H](CCc3cc(F)c(C(F)(F)F)c(F)c3)C(=O)N2C1 [PP0917] | – | 7.60 | – | – | – | – | 9.80 | B (a compound having 3 or more and less than 10 is denoted as B) | B (a compound having 3 or more and less than 10 is denoted as B) | –
4 | CC[C@H](C)[C@@H]1NC(=O)[C@H](CC(C)C)N(C)C(=O)C[C@@H](C(=O)N(C)C)N(C)C(=O)[C@H](C2CCCC2)N(C)C(=O)C2(CCCC2)NC(=O)[C@@H]2CCCN2C(=O)[C@H](CCc2ccc(C(F)(F)F)c(Cl)c2)NC(=O)CN(C)C(=O)[C@H](Cc2ccc(C(F)(F)F)cc2)N2CC=CCOC[C@H](C2=O)N(C)C(=O)CN(C)C1=O [PP0628] | 8.62 | 7.33 | – | – | C (A compound having a KD ratio of 0.1 or more and less than 3 is denoted as C) | C (A compound having a KD ratio of 0.1 or more and less than 3 is denoted as C) | – | – | – | –
5 | CCO[C@@H]1C[C@H]2C(=O)NC3(CC(C)(C)C3)C(=O)N(C)[C@@H](C3CCCC3)C(=O)N(C)[C@H](C(=O)N(C)CC)CC(=O)N(C)[C@@H](CC(C)C)C(=O)N[C@@H]([C@@H](C)CC)C(=O)N(C)CC(=O)N(C)[C@H]3C/C=C\CCN(C3=O)[C@@H](Cc3ccc(C(F)F)cc3)C(=O)N(C)CC(=O)N[C@@H](CCc3cc(F)c(C(F)F)c(OC)c3)C(=O)N2C1 [PP3147] | – | 7.26 | – | – | – | – | – | A (a compound having 10 or more and less than 20 is denoted as A) | A (a compound having 10 or more and less than 20 is denoted as A) | 9.39
6 | CCC[C@H]1C(=O)N[C@@H]([C@@H](C)CC)C(=O)N(C)CC(=O)N(C)[C@H]2C/C=C\CCN(C2=O)[C@@H](Cc2ccc(C)cc2)C(=O)N(C)CC(=O)N[C@@H](CCc2ccc(CC)c(Cl)c2)C(=O)N2C[C@H](OCC)C[C@H]2C(=O)NC2(CC(C)(C)C2)C(=O)N(C)[C@@H](C(CC)CC)C(=O)N(C)[C@H](C(=O)N(C)C)CC(=O)N1C [PP2779] | – | 6.95 | – | – | – | – | – | A (a compound having 10 or more and less than 20 is denoted as A) | A (a compound having 10 or more and less than 20 is denoted as A) | 8.47
7 | CCO[C@@H]1C[C@H]2C(=O)NC3(CC(C)(C)C3)C(=O)N(C)[C@@H](C3CCCC3)C(=O)N(C)[C@H](C(=O)N(C)CC)CC(=O)N(C)[C@@H]([C@H](C)OC)C(=O)N[C@@H]([C@@H](C)CC)C(=O)N3CCC[C@H]3C(=O)N(C)[C@H]3C/C=C\CCN(C3=O)[C@@H](Cc3ccc(C)cc3)C(=O)N(C)CC(=O)N[C@@H](CCc3cc(F)c(C(F)(F)F)c(F)c3)C(=O)N2C1 [PP3163] | – | 6.53 | – | – | – | – | – | A (a compound having 10 or more and less than 20 is denoted as A) | A (a compound having 10 or more and less than 20 is denoted as A) | 8.74
8 | CC[C@H](C)[C@@H]1NC(=O)[C@H](CC(C)C)N(C)C(=O)C[C@@H](C(=O)N2CCOCC2)N(C)C(=O)[C@H](C2CCCC2)N(C)C(=O)C2(CC2)NC(=O)[C@@H]2CCCN2C(=O)[C@H](CCc2ccc(C(F)(F)F)c(Cl)c2)NC(=O)CN(C)C(=O)[C@H](Cc2ccc(C(F)(F)F)cc2)N(CC)C(=O)CN(C)C(=O)CN(C)C1=O [PP0234] ([NMeL]I[Sar][Sar][NEtPhe(4-CF3)][Sar][hPhe(3-Cl-4-CF3)]P[Ac3c][NMeGly(cPent)][NMeD]-Morpholide; lactam N-11) | – | 7.30 | – | – | – | – | – | C (A compound having a KD ratio of 0.1 or more and less than 3 is denoted as C) | B (a compound having 3 or more and less than 10 is denoted as B) | 9.31
9 | CCO[C@@H]1C[C@H]2C(=O)NC3(CC(C)(C)C3)C(=O)N(C)[C@@H](C3CCCC3)C(=O)N(C)[C@H](C(=O)N(C)CC)CC(=O)N(C)[C@@H]([C@@H](C)OC)C(=O)N[C@@H]([C@@H](C)CC)C(=O)N3CCC[C@H]3C(=O)N(C)[C@H]3C/C=C\CCN(C3=O)[C@@H](Cc3ccc(C)cc3)C(=O)N(C)CC(=O)N[C@@H](CCc3ccc(C(F)(F)F)c(Cl)c3)C(=O)N2C1 [PP3192] | – | 7.38 | – | – | – | – | – | A (a compound having 10 or more and less than 20 is denoted as A) | A (a compound having 10 or more and less than 20 is denoted as A) | 9.02
10 | CCCOC[C@H]1C(=O)N[C@@H]([C@@H](C)CC)C(=O)N(C)CC(=O)N(C)[C@H]2C/C=C\CCN(C2=O)[C@@H](Cc2ccc(C)cc2)C(=O)N(C)CC(=O)N[C@@H](CCc2cc(F)c(C(F)(F)F)c(F)c2)C(=O)N2C[C@H](CCC)C[C@H]2C(=O)NC2(CCC2)C(=O)N(C)[C@@H](C2CCCC2)C(=O)N(C)[C@H](C(=O)N(C)C)CC(=O)N1C [PP2232] | 9.66 | 7.73 | – | – | A (a compound having 10 or more and less than 20 is denoted as A) | A (a compound having 10 or more and less than 20 is denoted as A) | – | – | – | –
11 | CCO[C@@H]1C[C@H]2C(=O)NC3(CC(C)(C)C3)C(=O)N(C)[C@@H](C3CCCC3)C(=O)N(C)[C@H](C(=O)N(C)CC)CC(=O)N(C)[C@@H](CC(C)C)C(=O)N[C@@H]([C@@H](C)CC)C(=O)N(C)CC(=O)N(C)[C@H]3C/C=C\CCN(C3=O)[C@@H](Cc3ccc(C(F)F)cc3)C(=O)N(C)CC(=O)N[C@@H](CCc3ccc4c(c3)CCC4(F)F)C(=O)N2C1 [PP3152] | – | 6.21 | – | – | – | – | – | A (a compound having 10 or more and less than 20 is denoted as A) | AA (a compound having 20 or more is denoted as AA) | 8.70
12 | CC[C@H](C)[C@@H]1NC(=O)[C@H](CC(C)C)N(C)C(=O)C[C@@H](C(=O)N2CCOCC2)N(C)C(=O)[C@H](C2CCCC2)N(C)C(=O)C2(CCC2)NC(=O)[C@@H]2[C@H](O)CCN2C(=O)[C@H](CCc2cc(F)c(C(F)(F)F)c(F)c2)NC(=O)CN(C)C(=O)[C@H](Cc2ccc(C(F)(F)F)cc2)N2CCCCC[C@@H](C2=O)N(C)C(=O)CN(C)C1=O [PP0873] | – | 6.05 | – | – | – | – | 9.07 | B (a compound having 3 or more and less than 10 is denoted as B) | A (a compound having 10 or more and less than 20 is denoted as A) | –
13 | CCC(CC)[C@H]1C(=O)N(C)[C@H](C(=O)N(C)C)CC(=O)N(C)[C@@H](COC)C(=O)N[C@@H]([C@@H](C)CC)C(=O)N(C)CC(=O)N(C)[C@H]2C/C=C\CCN(C2=O)[C@@H](Cc2ccc(C)cc2)C(=O)N(C)CC(=O)N[C@@H](CCc2ccc(Cl)c(Cl)c2)C(=O)N2C[C@H](OC3CCC3)C[C@H]2C(=O)N(C)C2(CC(C)(C)C2)C(=O)N1C [PP2816] | – | 7.64 | – | – | – | – | – | A (a compound having 10 or more and less than 20 is denoted as A) | AA (a compound having 20 or more is denoted as AA) | 9.41
14 | CCO[C@@H]1C[C@H]2C(=O)NC3(CCC3)C(=O)N(C)[C@@H](C3CCCC3)C(=O)N(C)[C@H](C(=O)N(C)C)CC(=O)N(C)[C@@H](CC3CCCC3)C(=O)N[C@@H]([C@@H](C)CC)C(=O)N(C)CC(=O)N(C)[C@H]3CCCCN(C3=O)[C@@H](Cc3ccc(C(F)(F)F)cc3)C(=O)N(C)CC(=O)N[C@@H](CCc3cc(F)c(C(F)(F)F)c(F)c3)C(=O)N2C1 [PP0700] | 10.89 | 8.54 | – | – | B (a compound having 3 or more and less than 10 is denoted as B) | C (A compound having a KD ratio of 0.1 or more and less than 3 is denoted as C) | – | – | – | –
15 | CCO[C@@H]1C[C@H]2C(=O)NC3(CCC3)C(=O)N(C)[C@@H](C3CCCC3)C(=O)N(C)[C@H](C(=O)N(C)C)CC(=O)N(C)[C@@H](CCOC)C(=O)N[C@@H]([C@@H](C)CC)C(=O)N(C)CC(=O)N(C)[C@H]3CCCCCN(C3=O)[C@@H](Cc3ccc(C(F)(F)F)cc3)C(=O)N(C)CC(=O)N[C@@H](CCc3cc(F)c(C(F)(F)F)c(F)c3)C(=O)N2C1 [PP0675] | 9.66 | 7.59 | – | – | B (a compound having 3 or more and less than 10 is denoted as B) | B (a compound having 3 or more and less than 10 is denoted as B) | – | – | – | –

Reference: EP4603105A1, “PHARMACEUTICAL COMPOSITION CONTAINING CYCLIC COMPOUND HAVING SELECTIVE KRAS INHIBITORY EFFECT AGAINST HRAS AND NRAS” (CHUGAI SEIYAKU KABUSHIKI KAISHA, priority 2022, dated 2024)
